# Experimental data reported in ChEMBL document CHEMBL5634124, “Discovery and optimization of indirubin derivatives as novel ferroptosis inducers for the treatment of colon cancer” (Eur J Med Chem, 2023).
# Calls of active or inactive are those of the source. The calls are words filed in the database; no cut-off is given here.
# Columns and labels:
# [1] = system: HCT-116; assay: Cytotoxicity against human HCT-116 cells assessed as inhibition of cell viability incubated for 48 hrs by CCK8 assay; format: functional, cell-based; settings: HCT-116, 48 h
# [2] = Kinetic solubility of compound at pH 7.4; format: physicochemical; settings: buffer, read-out: Kinetic_solubility
# [3] = system: HCT-116; assay: Inhibition of colony formation in human HCT-116 cells treated for 48 hrs followed by replacement of growth medium without compound every other day measured after 2 weeks by crystal violet staining based assay; format: functional, cell-based; settings: dose <= 1.0 µM
# [4] = system: HCT-116; assay: Cytotoxicity against human HCT-116 cells assessed as inhibition of cell viability incubated for 48 hrs in presence of Nec by CCK8 assay; format: functional, cell-based
# [5] = system: HCT-116; assay: Cytotoxicity against human HCT-116 cells assessed as inhibition of cell viability incubated for 48 hrs in presence of 3-MA by CCK8 assay; format: functional, cell-based
# [6] = system: HCT-116; assay: Cytotoxicity against human HCT-116 cells assessed as inhibition of cell viability incubated for 48 hrs in presence of Z-VAD by CCK8 assay; format: functional, cell-based
# [7] = system: HCT-116; assay: Cytotoxicity against human HCT-116 cells assessed as inhibition of cell viability incubated for 48 hrs in presence of NAC by CCK8 assay; format: functional, cell-based
# [8] = system: HCT-116; assay: Cytotoxicity against human HCT-116 cells assessed as inhibition of cell viability incubated for 48 hrs in presence of DFO by CCK8 assay; format: functional, cell-based
# [9] = system: HCT-116; assay: Cytotoxicity against human HCT-116 cells assessed as inhibition of cell viability incubated for 48 hrs in presence of Fer-1 by CCK8 assay; format: functional, cell-based
# [10] = system: HCT-116; assay: Induction of ferroptosis in human HCT-116 cells assessed as increase in intracellular lipid ROS level incubated for 24 hrs by CLSM analysis; format: functional, cell-based; settings: dose <= 1.0 µM
# [11] = system: HCT-116; assay: Induction of ferroptosis in human HCT-116 cells assessed as increase in intracellular lipid ROS level incubated for 24 hrs by flow cytometry; format: functional, cell-based; settings: dose <= 1.0 µM
# [12] = system: HCT-116; assay: Induction of ferroptosis in human HCT-116 cells assessed as increase in intracellular MDA level incubated for 24 hrs; format: functional, cell-based; settings: dose <= 1.0 µM
# [13] = system: HCT-116; assay: Induction of ferroptosis in human HCT-116 cells assessed as decrease in GSH level upto 1 uM incubated for 24 hrs; format: functional, cell-based
# [14] = system: HCT-116; assay: Induction of ferroptosis in human HCT-116 cells assessed as increase in Fe2+ level upto 1 uM incubated for 24 hrs by flow cytometry; format: functional, cell-based
# [15] = molecular target: T1, Phospholipid hydroperoxide glutathione peroxidase GPX4 (Homo sapiens) (UniProt P36969); assay: Inhibition of GPX4 in human HCT-116 cells at 0.5 uM by Western blot analysis; format: cell-based; settings: time <= 48.0 hrs, TDE = time-dependent effect
# T1 sequence (whole entry): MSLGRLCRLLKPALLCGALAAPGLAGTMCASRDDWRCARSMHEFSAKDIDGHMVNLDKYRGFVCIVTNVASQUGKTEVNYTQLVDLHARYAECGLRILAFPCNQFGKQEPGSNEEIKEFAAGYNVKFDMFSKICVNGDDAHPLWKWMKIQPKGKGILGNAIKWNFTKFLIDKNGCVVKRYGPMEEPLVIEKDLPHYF
# [16] = molecular target: T1, Phospholipid hydroperoxide glutathione peroxidase GPX4 (Homo sapiens); assay: Inhibition of GPX4 in human HCT-116 cells incubated for 24 hrs by Western blot analysis; format: cell-based; settings: dose <= 1.0 µM
# [17] = molecular target: T2, Phospholipid hydroperoxide glutathione peroxidase GPX4 (Homo sapiens, UniProt P36969); assay: Inhibition of GPX4 (unknown origin) incubated for 1 hr by absorbance based assay
# T2 sequence (P36969 whole entry): T1 sequence (whole entry)
# [18] = system: HCT-116; assay: Effect on FSP1 expression in human HCT-116 cells; format: functional, cell-based
# [19] = system: HCT-116; assay: Effect on ACSL4 expression in human HCT-116 cells; format: functional, cell-based
# [20] = system: HCT-116; assay: Effect on SLC7A11 expression in human HCT-116 cells; format: functional, cell-based
# [21] = system: HCT-116; assay: Effect on NCOA4 expression in human HCT-116 cells; format: functional, cell-based
# [22] = molecular target: T1, Phospholipid hydroperoxide glutathione peroxidase GPX4 (Homo sapiens); assay: Inhibition of GPX4 in human HCT-116 cells assessed as increase in protein ubiquitination upto 1 uM incubated for 24 hrs by co-immunoprecipitation method; format: cell-based
# [23] = Toxicity in BALB/c nude mouse model xenografted with human HCT-116 cells assessed as body weight loss at 25 to 50 mg/kg, ip administered 4 times a week for 3 weeks; format: organism-based; settings: in vivo, 504 h, dose 25-50 mg/kg
# [24] = system: HCT-116; assay: Antitumor activity against human HCT-116 cells xenografted in BALB/c nude mouse model assessed as tumor growth inhibition at 25 mg/kg, ip administered 4 times a week for 3 weeks relative to control; format: functional; settings: HCT-116, 504 h, read-out: TGI
# [25] = system: HCT-116; assay: Antitumor activity against human HCT-116 cells xenografted in BALB/c nude mouse model assessed as tumor growth inhibition at 50 mg/kg, ip administered 4 times a week for 3 weeks relative to control; format: functional; settings: HCT-116, 504 h, read-out: TGI
# [26] = Toxicity in BALB/c nude mouse model xenografted with human HCT-116 cells assessed as morphological change in heart at 25 to 50 mg/kg, ip administered 4 times a week for 3 weeks by H and E staining based analysis; format: organism-based; settings: in vivo, 504 h, dose 25-50 mg/kg
# [27] = Toxicity in BALB/c nude mouse model xenografted with human HCT-116 cells assessed as morphological change in liver at 25 to 50 mg/kg, ip administered 4 times a week for 3 weeks by H and E staining based analysis; format: organism-based; settings: in vivo, 504 h, dose 25-50 mg/kg
# [28] = Toxicity in BALB/c nude mouse model xenografted with human HCT-116 cells assessed as morphological change in spleen at 25 to 50 mg/kg, ip administered 4 times a week for 3 weeks by H and E staining based analysis; format: organism-based; settings: in vivo, 504 h, dose 25-50 mg/kg
# [29] = Toxicity in BALB/c nude mouse model xenografted with human HCT-116 cells assessed as morphological change in kidney at 25 to 50 mg/kg, ip administered 4 times a week for 3 weeks by H and E staining based analysis; format: organism-based; settings: in vivo, 504 h, dose 25-50 mg/kg
# [30] = Toxicity in BALB/c nude mouse model xenografted with human HCT-116 cells assessed as morphological change in lungs at 25 to 50 mg/kg, ip administered 4 times a week for 3 weeks by H and E staining based analysis; format: organism-based; settings: in vivo, 504 h, dose 25-50 mg/kg
# [31] = system: HCT-116; assay: Antitumor activity against human HCT-116 cells xenografted in BALB/c nude mouse model assessed as morphological change in tumor at 25 to 50 mg/kg, ip administered 4 times a week for 3 weeks by H and E staining based analysis; format: functional, organism-based; settings: dose 25-50 mg/kg
# [32] = system: HCT-116; assay: In vivo inhibition of GPX4 in human HCT-116 cells xenografted in BALB/c nude mouse model at 25 to 50 mg/kg, ip administered 4 times a week for 3 weeks by IHC analysis; format: functional, organism-based; settings: dose 25-50 mg/kg
# [33] = Metabolic stability in human liver microsomes assessed as half life at 0.5 uM incubated for 45 mins by LC/MS analysis; format: ADME, Microsome
# [34] = Metabolic stability in human liver microsomes assessed as intrinsic clearance at 0.5 uM incubated for 45 mins by LC/MS analysis; format: ADME, Microsome; settings: read-out: CLH
# [35] = Metabolic stability in human liver microsomes assessed as hepatic clearance rate at 0.5 uM incubated for 45 mins by LC/MS analysis; format: ADME, Microsome
structure (smiles),measurement,setting,value
C=CC(=O)CCCCC(=O)c1ccc2c(c1)C(=O)/C(=C1/C(=O)Nc3ccccc31)N2,IC50,[1],14.1 µM
C#CC(=O)N1CCN(c2ccc(NC(=O)c3ccc4c(c3)C(=O)/C(=C3/C(=O)Nc5ccccc53)N4)cc2)CC1,IC50,[1],> 20 µM
C#CC(=O)CCCC(=O)c1ccc2c(c1)C(=O)/C(=C1/C(=O)Nc3ccccc31)N2,IC50,[1],7.4 µM
C#CC(=O)CCC(=O)c1ccc2c(c1)C(=O)/C(=C1/C(=O)Nc3ccccc31)N2,IC50,[1],> 20 µM
C#CC(=O)N1CCN(C(=O)c2ccc3c(c2)C(=O)/C(=C2/C(=O)Nc4ccccc42)N3)CC1,IC50,[1],6.39 µM
C#CC(=O)CCCCCC(=O)c1ccc2c(c1)C(=O)/C(=C1/C(=O)Nc3ccccc31)N2,IC50,[1],3.53 µM
C#CC(=O)N1CCN(CCNC(=O)c2ccc3c(c2)C(=O)/C(=C2/C(=O)Nc4ccccc42)N3)CC1,IC50,[1],6.31 µM
C#CC(=O)N1CCC(CNC(=O)c2ccc3c(c2)C(=O)/C(=C2/C(=O)Nc4ccccc42)N3)CC1,IC50,[1],1 µM
O=C(CCl)CCCCC(=O)c1ccc2c(c1)C(=O)/C(=C1/C(=O)Nc3ccccc31)N2,IC50,[1],1.72 µM
O=C1Nc2ccccc2/C1=C1/Nc2ccc(C(=O)Nc3ccc(C4CCN(C(=O)CCl)CC4)cc3)cc2C1=O,IC50,[1],> 20 µM
O=C1Nc2ccccc2/C1=C1/Nc2ccc(C(=O)NCCC3CCN(C(=O)CCl)CC3)cc2C1=O,IC50,[1],0.72 µM
O=C1Nc2ccccc2/C1=C1/Nc2ccc(C(=O)NCC3CCN(C(=O)CCl)CC3)cc2C1=O,IC50,[1],0.49 µM
same,solubility kinetic,[2],< 0.5 µg/mL
same,inhibition,[3],Dose-Dependent Effect
same,inhibition,[4],Active
same,inhibition,[5],Active
same,inhibition,[6],Active
same,inhibition,[7],inactive
same,inhibition,[8],inactive
same,inhibition,[9],inactive
same,Activity,[10],Dose-Dependent Effect
same,Activity,[11],Dose-Dependent Effect
same,Activity,[12],Dose-Dependent Effect
same,Activity,[13],Active
same,Activity,[14],Active
same,inhibition,[15],Tde
same,inhibition,[16],Dose-Dependent Effect
same,IC50,[17],6.48 µM
same,Activity,[18],inactive
same,Activity,[19],inactive
same,Activity,[20],inactive
same,Activity,[21],inactive
same,inhibition,[22],Active
same,Activity,[23],Non-Toxic
same,inhibition in vivo at 25 mg/kg,[24],63.4%
same,inhibition in vivo at 50 mg/kg,[25],71.5%
same,Activity,[26],Non-Toxic
same,Activity,[27],Non-Toxic
same,Activity,[28],Non-Toxic
same,Activity,[29],Non-Toxic
same,Activity,[30],Non-Toxic
same,Activity,[31],Active
same,inhibition,[32],Active
same,half-life at 0.5 µM,[33],17.1 min
same,CLint scaled at 0.5 µM,[34],95.5 mL/min/kg
same,CLhep predicted at 0.5 µM,[35],16.9 mL/min/kg
O=C1Nc2ccccc2/C1=C1/Nc2ccc(C(=O)Nc3ccc(N4CCN(C(=O)CCl)CC4)cc3)cc2C1=O,IC50,[1],7.54 µM
C=CC(=O)N1CCN(C(=O)c2ccc3c(c2)C(=O)/C(=C2/C(=O)Nc4ccccc42)N3)CC1,IC50,[1],17.6 µM
O=C1Nc2ccccc2/C1=C1/Nc2ccc(C(=O)NN3CCN(C(=O)CCl)CC3)cc2C1=O,IC50,[1],1.44 µM
C=CC(=O)CCCCCC(=O)c1ccc2c(c1)C(=O)/C(=C1/C(=O)Nc3ccccc31)N2,IC50,[1],13.1 µM
C#CC(=O)N1CCC(c2ccc(NC(=O)c3ccc4c(c3)C(=O)/C(=C3/C(=O)Nc5ccccc53)N4)cc2)CC1,IC50,[1],> 20 µM
